Key:
[1] = In vivo gamma camera imaging after tail vein infusion; parameters: species or system C57BL/6 mice
Protocol: In vivo gamma camera imaging was performed on 5-week-old male C57BL/6 mice (Hamamatsu, Shizuoka). The gamma camera images were captured and taken for 10 min using a 2 mm pinhole collimator (Infinia II, GE Healthcare, Milwaukee, Wis., USA). A 200 μl volume of 37 MBq ^99mTC-RBC-EM was infused into the tail vein of mice. As a control, the same amount of free ^99mTc was infused. During the imaging, mice were continuously anesthetized using 2.5% isoflurane (Merial, Lyon, France). The gamma camera images were obtained by capturing the gamma camera images 1 hour and 3 hours after infusing ^99mTc-RBC-EM and free ^99mTc.
The region of interests (ROIs) in mice into which free ^99mTc was infused were the thyroid gland and the stomach, and the region of interests (ROIs) in mice into which ^99mTc-RBC-EM was infused were the thyroid gland and the liver/spleen. The right thigh part was used as a control of ROI. The average ROI count per pixel was calculated by dividing the same mice by the control ROI.

8505C cells = assay: Labeling of tumor cells with ^99mTc, uptake by gamma-counter; type: cell-based, human; settings: 4 μCi
Protocol: A human atypical thyroid carcinoma 8505C cell line (Deutsche Sammlung von Mikroorganismen and Zellkulturen (DSMZ)) was cultured under a humidified atmosphere of 5% CO2 at 37° C. in Dulbecco's Modified Eagle Medium (DMEM, Invitrogen, Grand Island, N.Y., USA) supplemented with 10% fetal bovine serum (FBS), 10 U/ml penicillin, and 10 μg/ml streptomycin (Invitrogen). The 8505C cells were cultured together with ^99mTc-RBC-EM with various doses (0, 1, 2, and 4 μCi). 24 hours later, free ^99mTc-RBC-EM, which had not been absorbed in cells, were washed using PBS. Thereafter, the 8505C cells were cultured in a 20% FBS solution in a 37° C. CO2 incubator for 1, 6, 12, and 18 hours. The uptake values were measured by a gamma-counter (Cobra II, 1 Hewlett Packard, USA) at all the time points, and the amount of radiation measured was shown as a count per minute (cpm) unit. In order to compare the aforementioned results with the results of ^99mTc-RBC-EM (4 μCi), it was measured whether tumor cells were labeled with ^99mTc-RBC-EM using free ^99mTc (4 μCi).

With `[99Tc]` [free ^99mTc, technetium-99m] the “organs of uptake in gamma camera image” value ([1]; 1 hour after injection, intravenous) was “strong uptake of free ^99mTc in the thyroid gland, the stomach, and the bladder”, the “uptake in regions of interest 3 hours after the infusion compared to 1 hour” value ([1]; free ^99mTc: thyroid gland and stomach, ^99mTc-RBC-EM: thyroid gland, liver, spleen) was “significantly (P<0.001) increased” and the “absorption in 8505C cells” value (8505C cells) was “rarely absorbed”. For the same molecule, the “absorption in 8505C cells as the time is increased” value (8505C cells) was “not increased”.

Source: US11446402B2, “Composition for material delivery, including exosome mimetics derived from red blood cells, and use thereof” (Kyungpook National University Industry—Academic Cooperation …, priority 2018, dated 2022)
